Experimental data as given in patent US20100179093A1, “Neoropeptide-2-Receptor (Y-2R) Agonists” (priority 2008, published 2010).

What was measured:
Format in all cases: cell-based
[1] = molecular target: T1, Y1R (Homo sapiens, UniProt P25929); experiment: CaFlux Assay (FLIPR), Y1R
T1 sequence (P25929 1-384): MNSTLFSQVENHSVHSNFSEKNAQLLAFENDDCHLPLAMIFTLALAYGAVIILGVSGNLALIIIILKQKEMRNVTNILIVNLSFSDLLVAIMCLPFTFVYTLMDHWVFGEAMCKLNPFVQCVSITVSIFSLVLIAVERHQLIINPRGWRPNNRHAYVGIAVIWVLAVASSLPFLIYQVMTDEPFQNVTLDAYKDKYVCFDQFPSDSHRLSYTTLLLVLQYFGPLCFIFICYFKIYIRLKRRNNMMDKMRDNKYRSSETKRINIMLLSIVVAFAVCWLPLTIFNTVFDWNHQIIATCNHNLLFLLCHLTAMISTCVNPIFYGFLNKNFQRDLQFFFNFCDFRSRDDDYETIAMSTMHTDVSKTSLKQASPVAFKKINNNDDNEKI

[2] = molecular target: Y4R (Homo sapiens, UniProt P50391); experiment: CaFlux Assay (FLIPR), Y4R
[3] = molecular target: T2, Y5R (Homo sapiens, UniProt Q15761); experiment: CaFlux Assay (FLIPR), Y5R;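 on Emax: percent of the maximal response of the positive control agonist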
T2 sequence (Q15761 1-445): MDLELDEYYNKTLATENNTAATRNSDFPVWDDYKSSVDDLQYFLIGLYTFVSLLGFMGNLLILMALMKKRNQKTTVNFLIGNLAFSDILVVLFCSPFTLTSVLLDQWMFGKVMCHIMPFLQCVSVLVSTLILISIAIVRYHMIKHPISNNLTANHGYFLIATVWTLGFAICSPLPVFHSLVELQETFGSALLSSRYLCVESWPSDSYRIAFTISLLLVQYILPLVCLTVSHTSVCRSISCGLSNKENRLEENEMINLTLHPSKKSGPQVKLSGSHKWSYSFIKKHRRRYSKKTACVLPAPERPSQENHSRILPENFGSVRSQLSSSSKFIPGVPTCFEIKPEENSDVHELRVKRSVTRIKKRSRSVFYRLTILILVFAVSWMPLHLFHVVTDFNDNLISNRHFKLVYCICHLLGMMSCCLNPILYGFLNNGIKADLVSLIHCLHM

[4] = molecular target: T3, hNPY2R (Homo sapiens, UniProt P49146); experiment: cAMP Agonist Assay, HEK293/hNPY2R cells; design: expressed in transfected cells; host or cells: HEK293/hNPY2R (G418 selection)
T3 sequence (P49146 1-381): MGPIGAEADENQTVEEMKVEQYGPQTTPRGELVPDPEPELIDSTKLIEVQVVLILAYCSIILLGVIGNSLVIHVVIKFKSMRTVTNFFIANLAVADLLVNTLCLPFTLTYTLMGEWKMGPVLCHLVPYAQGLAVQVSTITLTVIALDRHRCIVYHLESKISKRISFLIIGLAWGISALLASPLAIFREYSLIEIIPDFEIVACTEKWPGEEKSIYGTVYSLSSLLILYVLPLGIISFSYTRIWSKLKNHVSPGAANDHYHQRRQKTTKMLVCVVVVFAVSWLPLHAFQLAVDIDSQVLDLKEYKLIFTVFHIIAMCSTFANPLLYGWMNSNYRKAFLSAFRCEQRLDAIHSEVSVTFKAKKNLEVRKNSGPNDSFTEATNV

[5] = molecular target: T3, hNPY2R; experiment: CaFlux Assay (FLIPR), Y2R; design: expressed in transfected cells; host or cells: HEK-293 stably expressing G protein chimera Gaqi9
Method: Hek-293 cells were stably transfected with the G protein chimera Gaqi9 and the hygromycin-B resistance gene were further transfected with the human NPY2 receptor and G418 antibiotic selection. Following selection in both hygromycin-B and G418, individual clones were assayed for their response to PYY. The transfected cells were cultured in DMEM medium supplemented with 10% fetal bovine serum, 50 μg/mL hygromycin-B 2 mM glutamine, 100 U/mL penicillin, 100 μg/mL streptomycin and 250 μg/mL G418. Cells are harvested with trypsin-EDTA and counted using ViaCount reagent. The cell suspension volume is adjusted to 4.8×10^5 cells/mL with complete growth media. Aliquots of 25 μL are dispensed into 384 well Poly-D Lysine coated black/clear microplates (Falcon) and the microplates were placed in a 37° C. CO2 incubator overnight. Loading Buffer (Calcium-3 Assay Kit, Molecular Devices) was prepared by dissolving the contents of one vial (Express Kit) into 1000 mL Hank's Balanced Salt Solution containing 20 mM HEPES and 5 mM probenecid. Aliquots of 25 μL of diluted dye were dispensed into the cell plates and the plates are then incubated for 1 hour at 37° C. During the incubation, test compounds were prepared at 3.5× the desired concentration in HBSS (20 mM HEPES)/0.05% BSA/1% DMSO and transferred to a 384 well plate for use on FLIPR. After incubation, both the cell and compound plates were brought to the FLIPR and 20 μL of the diluted compounds were transferred to the cell plates by the FLIPR. During the assay, fluorescence readings were taken simultaneously from all 384 wells of the cell plate every 1.5 seconds. Five readings were taken to establish a stable baseline, and then 20 μL of sample was rapidly (30 μL/sec) and simultaneously added to each well of the cell plate. The fluorescence was continuously monitored before, during and after sample addition for a total elapsed time of 100 seconds. Responses (increase in peak fluorescence) in each well following addition were determined. The initial fluorescence reading from each well, prior to ligand stimulation, was used as a zero baseline value for the data from that well. The responses are expressed as % of maximal response of the positive control.

Y4R, sequence (P50391 whole entry): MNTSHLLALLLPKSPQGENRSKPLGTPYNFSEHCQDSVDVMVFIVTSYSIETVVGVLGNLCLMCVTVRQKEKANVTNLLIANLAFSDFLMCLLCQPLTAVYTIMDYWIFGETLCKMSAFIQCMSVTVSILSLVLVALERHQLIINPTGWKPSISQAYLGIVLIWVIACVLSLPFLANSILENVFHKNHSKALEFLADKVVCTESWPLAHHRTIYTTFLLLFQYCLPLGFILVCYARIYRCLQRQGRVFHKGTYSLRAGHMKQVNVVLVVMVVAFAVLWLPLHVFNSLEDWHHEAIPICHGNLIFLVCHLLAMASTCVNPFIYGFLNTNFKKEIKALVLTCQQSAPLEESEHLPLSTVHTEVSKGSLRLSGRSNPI

Compound	EC50 [1]	EC50 [2]	EC50 [3]	EC50 [4]	EC50 [5]	Emax ([3]; read-out: Y5R FLIPR, percentage in parentheses under the EC50)
CCCC(=O)NCCCC[C@H](NC(=O)[C@@H](NC(C)=O)[C@@H](C)CC)C(=O)N1CCN(c2ccc3ncn(CC(=O)N[C@@H](CCCNC(=N)N)C(=O)N[C@@H](Cc4c[nH]cn4)C(=O)N[C@@H](Cc4ccc(O)cc4)C(=O)N[C@@H](CC(C)C)C(=O)N[C@@H](CC(N)=O)C(=O)N[C@@H](Cc4c[nH]c5ccccc45)C(=O)N[C@H](C(=O)N[C@H](C(=O)N[C@@H](CCCNC(=N)N)C(=O)N[C@@H](CCC(N)=O)C(=O)N(C)[C@@H](CCCNC(=N)N)C(=O)N[C@@H](Cc4ccc(O)cc4)C(N)=O)[C@@H](C)O)C(C)C)c(=O)c3c2)CC1 [Example 5]	> 5 µM	31.6 µM	24.9 µM	0.00039 µM	180 pM	–
CCCCCCCC(=O)NCCCC[C@H](NC(=O)[C@@H](NC(C)=O)[C@@H](C)CC)C(=O)N1CCN(c2ccc3ncn(CC(=O)N[C@@H](CCCNC(=N)N)C(=O)N[C@@H](Cc4c[nH]cn4)C(=O)N[C@@H](Cc4ccc(O)cc4)C(=O)N[C@@H](CC(C)C)C(=O)N[C@@H](CC(N)=O)C(=O)N[C@@H](Cc4c[nH]c5ccccc45)C(=O)N[C@H](C(=O)N[C@H](C(=O)N[C@@H](CCCNC(=N)N)C(=O)N[C@@H](CCC(N)=O)C(=O)N(C)[C@@H](CCCNC(=N)N)C(=O)N[C@@H](Cc4ccc(O)cc4)C(N)=O)[C@@H](C)O)C(C)C)c(=O)c3c2)CC1 [Example 6]	5.2 µM	2.47 µM	99.9 µM	0.0017 µM	1450 pM	–
CCCCCCCCCCCC(=O)NCCCC[C@H](NC(=O)[C@@H](NC(C)=O)[C@@H](C)CC)C(=O)N1CCN(c2ccc3ncn(CC(=O)N[C@@H](CCCNC(=N)N)C(=O)N[C@@H](Cc4c[nH]cn4)C(=O)N[C@@H](Cc4ccc(O)cc4)C(=O)N[C@@H](CC(C)C)C(=O)N[C@@H](CC(N)=O)C(=O)N[C@@H](Cc4c[nH]c5ccccc45)C(=O)N[C@H](C(=O)N[C@H](C(=O)N[C@@H](CCCNC(=N)N)C(=O)N[C@@H](CCC(N)=O)C(=O)N(C)[C@@H](CCCNC(=N)N)C(=O)N[C@@H](Cc4ccc(O)cc4)C(N)=O)[C@@H](C)O)C(C)C)c(=O)c3c2)CC1 [Example 7]	6.43 µM	14.5 µM	12.8 µM	0.0054 µM	4700 pM	–
CCCCCCCCCCCC(=O)NCCCCCC(=O)NCCCC[C@H](NC(=O)[C@@H](N)[C@@H](C)CC)C(=O)N1CCN(c2ccc3ncn(CC(=O)N[C@@H](CCCNC(=N)N)C(=O)N[C@@H](Cc4c[nH]cn4)C(=O)N[C@@H](Cc4ccc(O)cc4)C(=O)N[C@@H](CC(C)C)C(=O)N[C@@H](CC(N)=O)C(=O)N[C@@H](Cc4c[nH]c5ccccc45)C(=O)N[C@H](C(=O)N[C@H](C(=O)N[C@@H](CCCNC(=N)N)C(=O)N[C@@H](CCC(N)=O)C(=O)N(C)[C@@H](CCCNC(=N)N)C(=O)N[C@@H](Cc4ccc(O)cc4)C(N)=O)[C@@H](C)O)C(C)C)c(=O)c3c2)CC1 [Example 9]	> 5 µM	2.45 µM	3.79 µM	0.0035 µM	31 pM	–
CCCCCCCCCCCC(=O)NCCC(=O)NCCCC[C@H](NC(=O)[C@@H](N)[C@@H](C)CC)C(=O)N1CCN(c2ccc3ncn(CC(=O)N[C@@H](CCCNC(=N)N)C(=O)N[C@@H](Cc4c[nH]cn4)C(=O)N[C@@H](Cc4ccc(O)cc4)C(=O)N[C@@H](CC(C)C)C(=O)N[C@@H](CC(N)=O)C(=O)N[C@@H](Cc4c[nH]c5ccccc45)C(=O)N[C@H](C(=O)N[C@H](C(=O)N[C@@H](CCCNC(=N)N)C(=O)N[C@@H](CCC(N)=O)C(=O)N(C)[C@@H](CCCNC(=N)N)C(=O)N[C@@H](Cc4ccc(O)cc4)C(N)=O)[C@@H](C)O)C(C)C)c(=O)c3c2)CC1 [Example 10]	> 5 µM	3.51 µM	4.74 µM	0.0052 µM	16 pM	–
CCCCCCCCCCCC(=O)N[C@@H](CCC(=O)O)C(=O)NCCCC[C@H](NC(=O)[C@@H](N)[C@@H](C)CC)C(=O)N1CCN(c2ccc3ncn(CC(=O)N[C@@H](CCCNC(=N)N)C(=O)N[C@@H](Cc4c[nH]cn4)C(=O)N[C@@H](Cc4ccc(O)cc4)C(=O)N[C@@H](CC(C)C)C(=O)N[C@@H](CC(N)=O)C(=O)N[C@@H](Cc4c[nH]c5ccccc45)C(=O)N[C@H](C(=O)N[C@H](C(=O)N[C@@H](CCCNC(=N)N)C(=O)N[C@@H](CCC(N)=O)C(=O)N(C)[C@@H](CCCNC(=N)N)C(=O)N[C@@H](Cc4ccc(O)cc4)C(N)=O)[C@@H](C)O)C(C)C)c(=O)c3c2)CC1 [Example 11]	> 5 µM	2.43 µM	3.55 µM	0.0036 µM	26 pM	–
CCCCCCCCCCCCCCCC(=O)NCCCC[C@H](NC(=O)[C@@H](NC(C)=O)[C@@H](C)CC)C(=O)N1CCN(c2ccc3ncn(CC(=O)N[C@@H](CCCNC(=N)N)C(=O)N[C@@H](Cc4c[nH]cn4)C(=O)N[C@@H](Cc4ccc(O)cc4)C(=O)N[C@@H](CC(C)C)C(=O)N[C@@H](CC(N)=O)C(=O)N[C@@H](Cc4c[nH]c5ccccc45)C(=O)N[C@H](C(=O)N[C@H](C(=O)N[C@@H](CCCNC(=N)N)C(=O)N[C@@H](CCC(N)=O)C(=O)N(C)[C@@H](CCCNC(=N)N)C(=O)N[C@@H](Cc4ccc(O)cc4)C(N)=O)[C@@H](C)O)C(C)C)c(=O)c3c2)CC1 [Example 13]	29.2 µM	32.2 µM	9.38 µM	0.0012 µM	1310 pM	–
CCCCCCCCCCCCCCCC(=O)NCCCC[C@H](NC(=O)[C@@H](N)[C@@H](C)CC)C(=O)N1CCN(c2ccc3ncn(CC(=O)N[C@@H](CCCNC(=N)N)C(=O)N[C@@H](Cc4c[nH]cn4)C(=O)N[C@@H](Cc4ccc(O)cc4)C(=O)N[C@@H](CC(C)C)C(=O)N[C@@H](CC(N)=O)C(=O)N[C@@H](Cc4c[nH]c5ccccc45)C(=O)N[C@H](C(=O)N[C@H](C(=O)N[C@@H](CCCNC(=N)N)C(=O)N[C@@H](CCC(N)=O)C(=O)N(C)[C@@H](CCCNC(=N)N)C(=O)N[C@@H](Cc4ccc(O)cc4)C(N)=O)[C@@H](C)O)C(C)C)c(=O)c3c2)CC1 [Example 14]	> 5 µM	> 5 µM	12.7 µM	0.001 µM	730 pM	–
CCCCCCCCCCCCCCCC(=O)N[C@H](C(=O)N[C@@H](CCCCN)C(=O)N1CCN(c2ccc3ncn(CC(=O)N[C@@H](CCCNC(=N)N)C(=O)N[C@@H](Cc4c[nH]cn4)C(=O)N[C@@H](Cc4ccc(O)cc4)C(=O)N[C@@H](CC(C)C)C(=O)N[C@@H](CC(N)=O)C(=O)N[C@@H](Cc4c[nH]c5ccccc45)C(=O)N[C@H](C(=O)N[C@H](C(=O)N[C@@H](CCCNC(=N)N)C(=O)N[C@@H](CCC(N)=O)C(=O)N(C)[C@@H](CCCNC(=N)N)C(=O)N[C@@H](Cc4ccc(O)cc4)C(N)=O)[C@@H](C)O)C(C)C)c(=O)c3c2)CC1)[C@@H](C)CC [Example 15]	> 5 µM	1.36 µM	> 5 µM	0.00097 µM	1030 pM	–
CCCCCCCCCCCCCCCC(=O)NCCC(=O)N[C@@H](CCC(=O)O)C(=O)NCCCC[C@H](NC(=O)[C@@H](N)[C@@H](C)CC)C(=O)N1CCN(c2ccc3ncn(CC(=O)N[C@@H](CCCNC(=N)N)C(=O)N[C@@H](Cc4c[nH]cn4)C(=O)N[C@@H](Cc4ccc(O)cc4)C(=O)N[C@@H](CC(C)C)C(=O)N[C@@H](CC(N)=O)C(=O)N[C@@H](Cc4c[nH]c5ccccc45)C(=O)N[C@H](C(=O)N[C@H](C(=O)N[C@@H](CCCNC(=N)N)C(=O)N[C@@H](CCC(N)=O)C(=O)N(C)[C@@H](CCCNC(=N)N)C(=O)N[C@@H](Cc4ccc(O)cc4)C(N)=O)[C@@H](C)O)C(C)C)c(=O)c3c2)CC1 [Example 22]	–	–	–	–	–	70%
